# Measurements from article PMC3627194, “Xentry, a new class of cell-penetrating peptide uniquely equipped for delivery of drugs” (Scientific Reports, 2013).
# Columns and labels:
# C32 (melanoma) = test: Cell permeability of Xentry, C32 cell line; assay type: cell-based; details: data not shown
# BT474 (breast) = test: Cell permeability of Xentry, BT474 cell line; assay type: cell-based; details: data not shown
# HepG2 cells [1] = assay type: cell-based
# Protocol: (§1) HepG2 cells (ATCC, Manassas, VA) were seeded into 8-well chamber slides at 1 × 10^5 cells per well in MEM media (Gibco, Life Technologies New Zealand Ltd) containing 10% FCS and PSG. […] L-isomeric peptides were diluted in 500 μl of MEM media without FCS, whereas D-isomeric peptides were diluted in the same media containing FCS, and each added to cells at a final concentration of 10 μM, or as indicated. The cells were incubated for 3 h at 37°C in a 5% CO2 atmosphere, washed with PBS, fixed with 4% formaldehyde for 30 min, and washed thrice with PBS. A drop of Prolong Gold anti-fade reagent with DAPI (Invitrogen, Life Technologies New Zealand Ltd) was added, and the cells mounted and examined with a Nikon E600 fluorescence microscope or a Leica TCS-SP2 confocal microscope.
# Untreated 37°C 4°C deoxyglucose Heparin Chlorpromazine
# Supplementary Figure 2. Cellular requirements for internalization of Xentry by HepG2 cells. (a) Incubation of FITC-labelled Xentry with HepG2 cells for 3 h at 4°C, or in the presence of 10 mM sodium azide and 6 mM 2-deoxy-D-glucose, 2 µg/ml heparin, or 10 µg/ml of chlorpromazine, as indicated, inhibited peptide uptake. Cell nuclei were stained blue with DAPI. Scale bar, 50 μm. […]
# [2] = test system: Rin-m5F (pancreatic β-cell); test: Cell permeability of Xentry, Rin-m5F cell line; assay type: cell-based; details: data not shown
# [3] = test system: peripheral blood monocytes attached to plastic; test: Uptake of Xentry by adherent blood monocytes; assay type: cell-based, human; details: FITC-labelled Xentry 10 μM
# DU145 (prostate) = test: Cell permeability of Xentry, DU145 cell line; assay type: cell-based; details: data not shown
# [4] = test system: K562 erythroleukemia cells; assay type: cell-based; details: non-adherent K562 erythroleukemia cells, FITC-labelled Xentry (LCLRPVG), fluorescence microscopy
# Protocol: (§2) K562 cells TK-1 cells Activated TK-1 cells
# (§3) Supplementary Figure 1. […] FITC- […]
# (§4) labelled Xentry (LCLRPVG; aa 16-22) was incubated with non-adherent K562 erythroleukemia cells and mouse TK-1 T cells and with Mn++-activated TK-1 cells attached to MAdCAM-1-coated plates. Cell uptake was recorded by fluorescence microscopy. Cell nuclei were stained blue with DAPI. Plates were coated with 1 µg/ml of MAdCAM-1 overnight and activated TK-1 cells were allowed to bind to the plates for 45 mins before incubation with FITC-labelled Xentry for 3 h. Scale bar represents […]
# mouse TK-1 T cells = assay type: cell-based; details: non-adherent mouse TK-1 T cells, FITC-labelled Xentry (LCLRPVG), fluorescence microscopy
# Protocol: as §2, §3, §4
# [5] = assay type: in vitro ADME; details: FITC-labelled peptide incubated in serum 0, 1 and 4 h, then incubated with HepG2 cells; read-out cell uptake by fluorescence microscopy
# Protocol: (§5) Supplementary Figure 3. The D-isomeric form of Xentry aa 16-22 is cell permeable, and is stable in serum for at least 4 h.
# (§6) (a) FITC-labelled D-isomeric Xentry was incubated with HepG2 cells at concentrations of […] for 3 h.
# (§7) Uptake was recorded by fluorescence microscopy. Cell nuclei were stained with DAPI. (b) FITC-labelled L-isomeric and D-isomeric forms of Xentry were incubated in serum for 0, 1, and 4 h before incubation with HepG2 cells. Cell nuclei were stained with DAPI. Scale bar, 50 μm. […]
# HepG2 cells [6] = test: Assay to test for cell permeability of peptides; assay type: cell-based; details: confocal microscopy
# Protocol: Figure 1 Cell-permeability of X-protein peptides. (a) X-protein peptides aa 1–20 and 16–35 are cell-permeable. Four FITC-labelled peptides encompassing aa 1–20, 16–35, 21–40 and 34–53 from the N-terminal region of the X-protein were incubated at 10 μM with HepG2 cells and their uptake by the cells recorded by confocal microscopy. Cell nuclei were stained blue with DAPI. (b) The sequence of the first 35 N-terminal residues of the HBV X-protein are shown with the sequence of Xentry (LCLRPVG; residues 16–22) highlighted in red. Short FITC-labelled peptides (10 μM) aa 16–26, 16–24 and 16–22 (Xentry) derived from peptide aa 16–35 also permeate HepG2 cells (upper panel). […] Cell nuclei were stained blue with DAPI. […] Cell nuclei were stained blue with DAPI. Scale bar, 50 μm.
# as §1, §5, §6, §7
# [7] = test system: human peripheral blood lymphocytes; test: Uptake of Xentry by non-adherent blood lymphocytes; assay type: cell-based; details: FITC-labelled Xentry 10 μM
# [8] = Acute toxicity after intravenous injection; assay type: in vivo; details: very high concentrations, single injection into the circulation
# [9] = test system: Mn++-activated adherent TK-1 T cells bound to MAdCAM-1-coated plates; assay type: cell-based, mouse; details: Mn++-activated TK-1 cells bound via α4β7 to plates coated with 1 µg/ml MAdCAM-1, FITC-labelled Xentry 3 h
# Protocol: as §2, §3, §4
# Cos (kidney) = test: Cell permeability of Xentry, Cos cell line; assay type: cell-based; details: data not shown
# H441 (lung) = test: Cell permeability of Xentry, H441 cell line; assay type: cell-based; details: data not shown
# erythrocytes = test: Uptake of Xentry by erythrocytes; assay type: cell-based, human; details: FITC-labelled Xentry 10 μM
# [10] = test system: K562 cells transfected to express syndecan-4; test: Uptake of Xentry by K562 cells engineered to express syndecan-4; assay type: cell-based; details: TAMRA-lclrpvg 20 μM, 3 h, 48 h after transfection with pCMV-hygro-SDC4
# Protocol: Cell nuclei were stained blue with DAPI. […] Scale bar, 50 μm.
# The media was removed and replaced with RPMI without serum. Four micrograms of the syndecan-4 plasmid pCMV-hygro-SDC4 and 4 μl of polymag transfection reagent (OZ Biosciences, Marseille, France) were mixed in 100 μl of Opti-MEM media. The mixture was incubated for 20 min at room temperature, added to the cells, and the tissue culture plate placed onto a magnetic plate for 20 min. The media was removed and replaced with RPMI media containing 10% FCS, followed by incubation for 48 h at 37°C and 5% CO2, with a media change after 24 h. TAMRA-labelled Xentry (TAMRA-lclrpvg) was added to the transfectants 48 h following transfection to a final concentration of 20 μM, and the cells were incubated for 3 h. The cells were removed from the plate, washed thrice with PBS, cytospun onto a slide, and fixed with 4% formaldehyde for 15 min. They were washed with PBS and DAPI added for visualization of cell nuclei. […] The cells were then examined using a Nikon E600 fluorescent microscope, and photographed.
# [11] = assay type: in vivo, Balb/c mice
# Protocol: (§8) All experiments in mice were performed in accordance with relevant institutional guidelines and regulations, and were subject to a protocol approved by the Animal Ethics Committee, the University of Auckland. Different amounts (0.1 mg, 1 mg and 5 mg) of a TAMRA-labelled D-isomeric form of Xentry (TAMRA-lclrpvg; Peptide 2.0 Inc., Chantilly, VA) were dissolved in 50 μl of PBS. […] Cardiac blood was collected into an EDTA tube and cytospun onto slides, and viewed by fluorescence microscopy to determine uptake of the peptide by blood cells. The major organs of each mouse was harvested and dissected in half to be either homogenized or placed in a cryotube with isopentane, frozen and sectioned. For homogenization, the organs were weighed and then homogenized in 500 μl of PBS in an Omni bead-ruptor homogenizer (OMNI International, Kennesaw, GA). Equal volumes of homogenate and 8 M guanidinium chloride were mixed, and then centrifuged at 12,000 g for 5 min, and fluorescence of the supernatant measured in a fluorescence plate reader.
# Supplementary Figure 5 (cont)
# Heart Lung Liver Spleen Pancreas Kidney Stomach Intestine Colon Muscle Brain […]
# Supplementary Figure 5. Biodistribution of TAMRA-labelled Xentry intravenously injected into mice. (a) Mice were intravenously injected with 0.1 mg and 5 mg of TAMRA-labelled Xentry and the fluorescence of organ homogenates was measured 15 min, 1, 6, and 24 h later. Results are presented as the mean + SD (n = 3). Refer to Figure 4d for the fluorescence of organ homogenates of mice injected with 1 mg of Xentry. (b) Fluorescence of sections of the major organs of mice intravenously injected with 5 mg of TAMRA-labelled Xentry. The liver sections for the 15 min time-point […]
# circulating blood cells = assay type: in vivo, Balb/c mice; details: 0.1, 1 and 5 mg i.v.; cytospins of whole blood at 15 min, 1 h, 6 h and 24 h
# Protocol: as §8
# Supplementary Figure 6. […] A sample of […]
# cardiac blood was collected from mice injected with 0.1, 1 and 5 mg of TAMRA-labelled Xentry at 4 different time points, and cytospun onto a slide. The blood sample was examined by brightfield and fluorescence microscopy. […]
substance,measurement,setting,value
"LCLRPVG [Xentry, 7 amino acid residue peptide LCLRPVG (residues 16–22) of the HBV X-protein; FITC-labelled in uptake tests]",Cell permeability,C32 (melanoma),capable of permeating
same,Cell permeability,BT474 (breast),capable of permeating
same,Internalization by HepG2 cells at 4°C,"HepG2 cells [1]; FITC-labelled Xentry, 3 h, 4°C",not at 4 °C
same,Internalization by HepG2 cells at 37°C,"HepG2 cells [1]; FITC-labelled Xentry, 3 h, 37°C",internalized
same,Uptake in the presence of heparin,"HepG2 cells [1]; HepG2, 2 µg/ml heparin, 3 h",blocked
same,Uptake in the presence of chlorpromazine,"HepG2 cells [1]; HepG2, 10 µg/ml chlorpromazine (clathrin pathway inhibitor), 3 h",blocked
same,Uptake after pretreatment with azide and deoxyglucose,"HepG2 cells [1]; HepG2, 10 mM sodium azide and 6 mM 2-deoxy-D-glucose, 3 h",blocked
same,Effect of cytochalasin D on uptake,"HepG2 cells [1]; HepG2, data not shown",without effect
same,Effect of filipin on uptake,"HepG2 cells [1]; HepG2, data not shown",without effect
same,Cell permeability,[2],capable of permeating
same,Cell uptake,[3],taken up
same,Cell permeability,DU145 (prostate),capable of permeating
same,Cell permeability,[4],incapable of permeating
same,Cell permeability,mouse TK-1 T cells,incapable of permeating
same,Time to inactivation in serum,[5],≤ 1 h
same,Cell permeability (uptake by HepG2 cells),"HepG2 cells [6]; FITC-labelled L-isomeric peptide 10 μM, MEM without FCS, 3 h, 37°C, cells fixed",cell-permeable
same,Subcellular localisation after uptake,"HepG2 cells [6]; FITC-labelled peptide 10 μM, HepG2 cells, DAPI",taken up into the cytoplasm and nucleus
same,Cell permeability,[7],incapable of permeating
same,Acute toxicity,[8],no signs of acute toxicity
same,Cell uptake,[9],taken up
same,Cell permeability,Cos (kidney),capable of permeating
same,Cell permeability,H441 (lung),capable of permeating
same,Cell permeability,erythrocytes,incapable of permeating
"TAMRA-lclrpvg [TAMRA-labelled Xentry, TAMRA-labelled D-isomeric form of Xentry]",Uptake by syndecan-4-expressing K562 transfectants,[10],increased uptake
same,"Uptake by heart, pancreas, brain relative to other tissues","[11]; 0.1, 1 and 5 mg i.v., organ homogenates",less well
same,Time to uptake by major tissues (organ homogenates),"[11]; 0.1, 1 and 5 mg i.v., lungs, liver, spleen, kidneys, stomach, small intestine, colon, muscle, homogenate fluorescence, n = 3",≤ 15 min
same,"Level in most organs, except liver and kidneys, by 24 h","[11]; i.v., 24 h, organ homogenates",only low levels
same,Distribution within tissue sections,"[11]; i.v., fluorescence of organ sections","concentrated within particular regions of certain tissues, such as the epithelia lining the colon, stomach and bronchial airways"
same,Uptake by circulating blood cells,circulating blood cells,not taken up and sequestered
